Activity calls are given as the source filed them.
Columns and labels:
[1] = target: T1, Microphthalmia-associated transcription factor (Homo sapiens, UniProt O75030); assay: TRPM1 promoter luciferase signal decrease, dose response, MITF inhibitor project, cell-based, SK-MEL-5, cherry-picked, set 3 (AID 493073); assay type: functional
T1 sequence (O75030 whole entry): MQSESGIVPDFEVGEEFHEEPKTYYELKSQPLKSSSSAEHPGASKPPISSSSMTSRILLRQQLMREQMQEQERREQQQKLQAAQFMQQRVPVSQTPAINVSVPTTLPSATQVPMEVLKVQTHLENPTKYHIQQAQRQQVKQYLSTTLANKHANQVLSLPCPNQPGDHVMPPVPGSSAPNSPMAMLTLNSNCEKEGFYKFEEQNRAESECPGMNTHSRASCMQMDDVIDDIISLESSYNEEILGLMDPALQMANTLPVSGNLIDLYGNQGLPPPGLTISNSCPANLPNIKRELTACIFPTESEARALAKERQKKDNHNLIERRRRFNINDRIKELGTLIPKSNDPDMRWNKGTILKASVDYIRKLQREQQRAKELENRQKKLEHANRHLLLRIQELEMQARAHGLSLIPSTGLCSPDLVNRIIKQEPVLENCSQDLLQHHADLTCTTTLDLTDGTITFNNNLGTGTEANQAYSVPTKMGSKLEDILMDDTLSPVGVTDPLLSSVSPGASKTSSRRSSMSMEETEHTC

[2] = target: T2, High affinity choline transporter 1 (Homo sapiens, UniProt Q9GZV3); assay: CHT inhibitors, dose response, cell-based, 10-point CRC, membrane potential dye (AID 588401); assay type: functional;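 further: membrane potential dye fluorescence of choline-evoked depolarization via CHT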
T2 sequence (Q9GZV3 whole entry): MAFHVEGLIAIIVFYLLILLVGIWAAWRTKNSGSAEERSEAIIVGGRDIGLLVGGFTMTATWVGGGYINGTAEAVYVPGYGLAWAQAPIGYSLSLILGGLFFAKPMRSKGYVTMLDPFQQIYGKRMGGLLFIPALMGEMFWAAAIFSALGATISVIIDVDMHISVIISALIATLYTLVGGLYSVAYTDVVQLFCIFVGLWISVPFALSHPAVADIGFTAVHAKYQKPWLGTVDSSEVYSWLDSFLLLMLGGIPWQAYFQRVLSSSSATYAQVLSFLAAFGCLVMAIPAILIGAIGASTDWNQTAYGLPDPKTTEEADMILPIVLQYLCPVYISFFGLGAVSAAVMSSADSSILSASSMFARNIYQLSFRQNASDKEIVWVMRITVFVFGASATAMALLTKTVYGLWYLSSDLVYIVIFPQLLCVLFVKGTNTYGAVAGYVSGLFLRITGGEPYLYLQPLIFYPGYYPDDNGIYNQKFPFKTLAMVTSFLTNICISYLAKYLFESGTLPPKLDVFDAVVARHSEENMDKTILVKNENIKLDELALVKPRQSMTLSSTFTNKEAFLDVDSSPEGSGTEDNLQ

[3] = target: T2, High affinity choline transporter 1; assay: CHT inhibitors, dose response, cell-based, 5-point CRC, membrane potential dye (AID 504840); assay type: functional
[4] = cytotoxicity toward NIH3T3 fibroblasts, dose response, counter-screen, cell-based, ATP luminescence, mouse fibroblasts (AID 2010); assay type: functional;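 further: cells exposed to compound for about 90 hours before reading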
[5] = inhibitors of intracellular T. cruzi replication, confirmation, NIH3T3 host cells, beta-gal luminescence (AID 2044); assay type: functional, cell-based;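 further: intracellular parasites grown in NIH/3T3 mouse fibroblasts as host cells; luminescent beta-galactosidase reporter signal from transgenic T. cruzi replicating inside host cells; inhibitors lower the luminescence signal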
[6] = target: T3, Short transient receptor potential channel 4 (Mus musculus, UniProt Q9QUQ5); assay: mouse TRPC4 channel activators, dose response, cell-based, HEK293 TRPC4/mu-opioid, Fluo-4 calcium (AID 434937); assay type: functional
T3 sequence (Q9QUQ5 whole entry): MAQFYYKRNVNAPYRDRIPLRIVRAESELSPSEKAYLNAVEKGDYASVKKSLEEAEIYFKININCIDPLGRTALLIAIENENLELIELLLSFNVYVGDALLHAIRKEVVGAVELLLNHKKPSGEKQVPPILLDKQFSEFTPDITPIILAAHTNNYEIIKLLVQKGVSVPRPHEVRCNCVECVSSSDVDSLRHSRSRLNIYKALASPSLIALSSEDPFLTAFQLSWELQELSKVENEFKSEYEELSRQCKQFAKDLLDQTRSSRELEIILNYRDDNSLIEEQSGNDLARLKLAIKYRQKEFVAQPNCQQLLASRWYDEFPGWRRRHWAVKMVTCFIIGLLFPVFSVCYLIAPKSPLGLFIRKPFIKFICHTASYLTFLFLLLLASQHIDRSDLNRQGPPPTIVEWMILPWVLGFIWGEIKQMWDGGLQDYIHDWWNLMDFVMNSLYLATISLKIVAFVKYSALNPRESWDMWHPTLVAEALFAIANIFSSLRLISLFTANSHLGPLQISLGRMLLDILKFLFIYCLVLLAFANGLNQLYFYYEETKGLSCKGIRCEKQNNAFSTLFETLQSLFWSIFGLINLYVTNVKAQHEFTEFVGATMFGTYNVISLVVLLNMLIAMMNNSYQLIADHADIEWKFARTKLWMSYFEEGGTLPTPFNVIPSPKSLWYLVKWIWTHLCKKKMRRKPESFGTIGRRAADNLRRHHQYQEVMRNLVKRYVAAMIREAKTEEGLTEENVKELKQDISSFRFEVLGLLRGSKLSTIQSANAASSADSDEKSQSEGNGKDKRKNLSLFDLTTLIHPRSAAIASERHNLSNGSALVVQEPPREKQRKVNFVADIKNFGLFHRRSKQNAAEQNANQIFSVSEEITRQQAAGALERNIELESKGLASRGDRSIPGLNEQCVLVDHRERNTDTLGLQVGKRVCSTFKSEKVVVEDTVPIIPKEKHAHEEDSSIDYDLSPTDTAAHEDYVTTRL

[7] = NIH-3T3 fibroblast cytotoxicity, dose response, cytotoxicity control, cell-based, fluorescence, Alamar Blue, secondary assay (AID 2327); assay type: functional;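 further: NIH-3T3 mouse fibroblasts cultured with fluconazole at 8 µg/mL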
INS1 = assay: beta cell apoptosis inhibitors, cytokine rescue, dose response, luminescence, retest (AID 449756); assay type: functional, cell-based; conditions: Rattus norvegicus;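 further: cell death triggered by IL-1 beta plus TNF-alpha plus IFN-gamma mixture; protective hits raise ATP signal compared with cytokine alone wells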
[8] = target: Heat shock protein HSP 90-alpha (Homo sapiens, UniProt P07900); assay type: functional, organism-based
Streptococcus = assay: Group A Streptococcus viability loss, dose response, counter-screen for streptokinase expression inhibitor project, luminescence, BacTiterGlo (AID 1915); assay type: functional, organism-based;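 further: potency for reduction of bacterial viability or growth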
[9] = target: Luciferin 4-monooxygenase (Photinus pyralis, UniProt P08659); assay: firefly luciferase enzyme inhibitors, dose response, biochemical, luminescence (AID 1891)
Chain of Luciferin 4-monooxygenase (P08659 whole entry): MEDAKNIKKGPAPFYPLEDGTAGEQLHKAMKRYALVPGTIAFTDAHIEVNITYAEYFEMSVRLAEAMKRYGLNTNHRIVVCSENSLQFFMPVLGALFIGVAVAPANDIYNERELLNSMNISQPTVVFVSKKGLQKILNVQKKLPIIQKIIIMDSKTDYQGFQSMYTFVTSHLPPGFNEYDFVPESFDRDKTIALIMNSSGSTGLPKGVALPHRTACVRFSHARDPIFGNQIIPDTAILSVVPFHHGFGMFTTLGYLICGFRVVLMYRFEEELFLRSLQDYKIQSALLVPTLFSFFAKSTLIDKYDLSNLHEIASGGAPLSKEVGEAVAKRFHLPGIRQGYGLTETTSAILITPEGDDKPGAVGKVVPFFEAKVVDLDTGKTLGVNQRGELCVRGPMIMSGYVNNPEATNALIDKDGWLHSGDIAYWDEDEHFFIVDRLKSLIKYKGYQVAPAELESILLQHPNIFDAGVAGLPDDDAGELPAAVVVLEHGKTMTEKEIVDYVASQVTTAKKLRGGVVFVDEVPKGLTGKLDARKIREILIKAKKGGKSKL

HEK293 = assay: inhibitors of LMP1-driven NF-kB reporter, dose response, cell-based, HEK293, luciferase, cherry-pick (AID 588343); assay type: functional; conditions: Homo sapiens
[10] = Luminescence Cell-Based Dose Confirmation HTS to Identify Inhibitors of Platelet Dense Granule Release. [Related pubchem assays: 1663 (Primary HTS), 1678 (Summary of Project)]; assay type: functional
[11] = test system: Streptococcus sp. 'group A'; assay: growth inhibition of control SK(-) GAS strain, dose response, counter-screen for streptokinase expression inhibitor project, luminescence, kanamycin, BacTiterGlo, confirmation (AID 1900); assay type: functional, organism-based
[12] = C. albicans growth with fluconazole, confirmation, fluorescence, retest (AID 2467); assay type: functional, cell-based
[13] = target: T4, Heat shock factor protein 1 (Mus musculus, UniProt P38532); assay: inhibition of MG132-induced HSE-luciferase signal, confirmation, cell-based, NIH3T3, luminescence, dose retest (AID 2382); assay type: functional;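 further: NIH3T3 fibroblasts with HSF1-driven luciferase reporter stressed by proteasome inhibitor MG132; luminescence from HSF1-driven luciferase expression after 8 hours of MG132 stress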
T4 sequence (P38532 whole entry): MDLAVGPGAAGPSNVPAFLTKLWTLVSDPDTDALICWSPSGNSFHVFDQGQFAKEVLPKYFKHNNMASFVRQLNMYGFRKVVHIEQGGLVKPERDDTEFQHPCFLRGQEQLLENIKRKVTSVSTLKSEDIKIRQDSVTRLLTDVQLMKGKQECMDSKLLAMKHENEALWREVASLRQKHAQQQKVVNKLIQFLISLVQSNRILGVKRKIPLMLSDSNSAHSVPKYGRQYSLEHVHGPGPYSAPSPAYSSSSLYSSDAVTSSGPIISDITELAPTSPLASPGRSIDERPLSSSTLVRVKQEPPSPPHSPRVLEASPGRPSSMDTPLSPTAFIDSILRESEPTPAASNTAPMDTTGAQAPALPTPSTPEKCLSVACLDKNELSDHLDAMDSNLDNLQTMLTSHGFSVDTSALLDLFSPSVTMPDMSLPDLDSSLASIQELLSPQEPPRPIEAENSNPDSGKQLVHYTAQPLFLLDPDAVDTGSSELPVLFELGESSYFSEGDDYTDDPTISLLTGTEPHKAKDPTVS

[14] = target: T3, Short transient receptor potential channel 4; assay: mouse TRPC4 channel inhibitors, dose response, cell-based, HEK293 TRPC4/mu-opioid, Fluo-4 calcium (AID 434942); assay type: functional;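 further: potency of inhibitors blocking the TRPC4 calcium response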
[15] = Luminescence-based cell-based high throughput dose response assay to identify activators of the DAF-12 from the parasite S. stercoralis (ssDAF-12).; assay type: functional
[16] = target: T5, Voltage-gated N-type calcium channel alpha-1B subunit/Amyloid beta A4 precursor protein-binding family A member 1 (Homo sapiens, UniProt Q00975+Q02410); assay type: protein assay
T5 sequence (Q00975 whole entry): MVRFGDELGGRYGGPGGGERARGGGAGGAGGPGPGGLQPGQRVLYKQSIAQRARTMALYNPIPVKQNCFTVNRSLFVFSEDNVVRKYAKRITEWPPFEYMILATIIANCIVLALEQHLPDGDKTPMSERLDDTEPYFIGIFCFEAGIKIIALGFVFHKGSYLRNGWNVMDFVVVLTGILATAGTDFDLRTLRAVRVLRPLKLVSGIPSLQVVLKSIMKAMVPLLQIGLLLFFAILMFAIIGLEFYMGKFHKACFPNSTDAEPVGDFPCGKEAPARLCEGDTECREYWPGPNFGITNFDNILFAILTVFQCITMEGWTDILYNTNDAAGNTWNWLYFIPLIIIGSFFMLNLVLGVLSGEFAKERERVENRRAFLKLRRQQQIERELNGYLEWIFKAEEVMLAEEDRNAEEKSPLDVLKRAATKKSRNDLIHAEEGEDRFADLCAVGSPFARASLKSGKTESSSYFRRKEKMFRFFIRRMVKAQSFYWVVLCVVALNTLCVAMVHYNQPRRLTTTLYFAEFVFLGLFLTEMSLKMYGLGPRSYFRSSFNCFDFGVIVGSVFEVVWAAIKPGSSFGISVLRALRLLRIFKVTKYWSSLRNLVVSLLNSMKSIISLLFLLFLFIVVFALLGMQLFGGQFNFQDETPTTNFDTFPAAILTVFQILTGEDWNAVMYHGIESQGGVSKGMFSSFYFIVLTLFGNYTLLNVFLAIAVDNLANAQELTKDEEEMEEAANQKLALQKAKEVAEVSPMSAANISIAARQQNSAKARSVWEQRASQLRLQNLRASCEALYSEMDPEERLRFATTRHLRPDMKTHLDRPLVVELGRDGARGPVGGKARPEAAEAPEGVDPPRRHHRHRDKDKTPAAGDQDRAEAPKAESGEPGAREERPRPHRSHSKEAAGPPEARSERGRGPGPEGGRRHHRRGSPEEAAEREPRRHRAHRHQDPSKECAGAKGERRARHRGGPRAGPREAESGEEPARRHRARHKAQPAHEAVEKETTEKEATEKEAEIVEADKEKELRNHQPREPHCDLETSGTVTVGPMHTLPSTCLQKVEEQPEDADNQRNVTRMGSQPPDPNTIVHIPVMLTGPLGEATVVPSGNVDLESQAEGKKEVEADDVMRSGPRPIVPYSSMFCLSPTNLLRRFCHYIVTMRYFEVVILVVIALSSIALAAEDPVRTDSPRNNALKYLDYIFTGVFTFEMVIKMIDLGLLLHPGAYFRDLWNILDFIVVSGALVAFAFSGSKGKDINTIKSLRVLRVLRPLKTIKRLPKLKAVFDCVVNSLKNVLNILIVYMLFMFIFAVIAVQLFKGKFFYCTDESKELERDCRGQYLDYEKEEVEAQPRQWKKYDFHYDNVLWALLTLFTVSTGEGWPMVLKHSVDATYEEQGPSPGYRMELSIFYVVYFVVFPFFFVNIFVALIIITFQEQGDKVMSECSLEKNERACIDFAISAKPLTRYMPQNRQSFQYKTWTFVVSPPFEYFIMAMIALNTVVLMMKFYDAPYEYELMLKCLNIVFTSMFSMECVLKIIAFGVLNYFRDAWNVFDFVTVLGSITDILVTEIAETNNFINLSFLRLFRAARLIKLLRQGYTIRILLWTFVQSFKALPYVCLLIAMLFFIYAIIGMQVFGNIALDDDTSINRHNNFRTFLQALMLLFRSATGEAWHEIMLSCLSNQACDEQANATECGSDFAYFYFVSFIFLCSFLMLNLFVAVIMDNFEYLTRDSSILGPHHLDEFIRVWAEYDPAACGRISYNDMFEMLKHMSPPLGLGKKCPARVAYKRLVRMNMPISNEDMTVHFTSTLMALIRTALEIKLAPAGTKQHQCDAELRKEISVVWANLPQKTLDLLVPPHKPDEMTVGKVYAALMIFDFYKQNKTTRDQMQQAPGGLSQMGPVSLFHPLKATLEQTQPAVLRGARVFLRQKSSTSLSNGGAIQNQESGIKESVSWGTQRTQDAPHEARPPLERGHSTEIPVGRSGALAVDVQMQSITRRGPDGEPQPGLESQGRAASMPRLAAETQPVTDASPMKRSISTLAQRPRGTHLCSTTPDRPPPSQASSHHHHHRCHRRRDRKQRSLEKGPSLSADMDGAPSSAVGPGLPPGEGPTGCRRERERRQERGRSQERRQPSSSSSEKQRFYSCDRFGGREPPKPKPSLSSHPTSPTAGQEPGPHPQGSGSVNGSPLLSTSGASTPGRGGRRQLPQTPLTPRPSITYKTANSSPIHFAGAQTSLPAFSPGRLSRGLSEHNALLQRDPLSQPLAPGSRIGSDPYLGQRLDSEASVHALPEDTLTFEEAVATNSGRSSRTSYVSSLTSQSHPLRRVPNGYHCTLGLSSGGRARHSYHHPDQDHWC
T5 sequence (Q02410 whole entry): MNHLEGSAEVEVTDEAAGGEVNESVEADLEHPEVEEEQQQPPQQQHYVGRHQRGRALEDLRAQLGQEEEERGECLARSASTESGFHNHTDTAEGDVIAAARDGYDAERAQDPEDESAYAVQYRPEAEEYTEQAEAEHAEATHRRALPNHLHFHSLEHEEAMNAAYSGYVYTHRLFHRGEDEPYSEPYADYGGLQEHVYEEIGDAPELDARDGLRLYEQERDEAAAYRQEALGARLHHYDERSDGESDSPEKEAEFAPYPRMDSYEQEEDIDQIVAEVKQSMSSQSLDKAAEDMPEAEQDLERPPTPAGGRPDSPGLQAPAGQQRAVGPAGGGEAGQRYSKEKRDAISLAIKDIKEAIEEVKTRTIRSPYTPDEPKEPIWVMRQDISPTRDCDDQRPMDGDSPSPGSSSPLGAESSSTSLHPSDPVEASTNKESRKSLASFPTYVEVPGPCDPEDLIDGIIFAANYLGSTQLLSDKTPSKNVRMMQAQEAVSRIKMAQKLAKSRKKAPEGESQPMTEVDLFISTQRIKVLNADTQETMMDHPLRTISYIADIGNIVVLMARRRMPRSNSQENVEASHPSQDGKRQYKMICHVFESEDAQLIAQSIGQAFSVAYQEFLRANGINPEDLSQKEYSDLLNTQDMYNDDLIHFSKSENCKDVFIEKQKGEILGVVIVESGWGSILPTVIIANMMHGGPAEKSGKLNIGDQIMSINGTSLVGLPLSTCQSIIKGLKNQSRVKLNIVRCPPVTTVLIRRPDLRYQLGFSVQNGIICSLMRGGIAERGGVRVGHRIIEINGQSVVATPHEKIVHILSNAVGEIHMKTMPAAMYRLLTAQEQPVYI

[17] = target: T5, Voltage-gated N-type calcium channel alpha-1B subunit/Amyloid beta A4 precursor protein-binding family A member 1; assay type: protein assay; remark: listed apart in the source
[18] = target: T6, Calpain-2 catalytic subunit (Sus scrofa, UniProt P43367); assay: pig calpain II inhibitor potency, dose response, biochemical, fluorogenic peptide substrate (AID 1420); assay type: functional
T6 sequence (P43367 whole entry): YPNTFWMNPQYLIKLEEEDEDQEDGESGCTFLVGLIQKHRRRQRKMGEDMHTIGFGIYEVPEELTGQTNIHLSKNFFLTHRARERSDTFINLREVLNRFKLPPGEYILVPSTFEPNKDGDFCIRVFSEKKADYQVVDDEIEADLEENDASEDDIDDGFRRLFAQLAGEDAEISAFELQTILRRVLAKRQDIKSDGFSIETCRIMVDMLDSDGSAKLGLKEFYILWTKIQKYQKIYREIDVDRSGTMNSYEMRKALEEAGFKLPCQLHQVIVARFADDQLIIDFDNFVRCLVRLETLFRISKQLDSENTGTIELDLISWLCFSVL

Cytochrome P450 2D6 = Cytochrome P450 2D6 (Homo sapiens, UniProt P10635);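 further: CYP2D6 member of a cytochrome P450 panel assay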
Chain of Cytochrome P450 2D6 (P10635 whole entry): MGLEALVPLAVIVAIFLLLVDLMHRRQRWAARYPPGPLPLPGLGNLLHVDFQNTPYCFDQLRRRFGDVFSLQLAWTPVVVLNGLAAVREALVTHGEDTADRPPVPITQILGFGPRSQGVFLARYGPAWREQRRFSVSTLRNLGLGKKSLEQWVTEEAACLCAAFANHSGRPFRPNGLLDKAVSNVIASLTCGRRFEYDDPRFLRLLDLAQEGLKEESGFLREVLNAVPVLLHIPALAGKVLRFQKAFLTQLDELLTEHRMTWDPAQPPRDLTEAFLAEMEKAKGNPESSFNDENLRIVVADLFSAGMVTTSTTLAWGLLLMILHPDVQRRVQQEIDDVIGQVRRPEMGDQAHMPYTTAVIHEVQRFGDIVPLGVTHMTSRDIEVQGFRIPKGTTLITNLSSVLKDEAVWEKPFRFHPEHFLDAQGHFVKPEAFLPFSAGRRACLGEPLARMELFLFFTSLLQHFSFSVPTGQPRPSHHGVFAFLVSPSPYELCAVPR

Compound: N#Cc1cc2c(nc1SC1CC(=O)N(c3ccccc3)C1=O)CCC2 (stereo not given)
- AC50 [1]: 1.78 µM (active)

Compound: Cc1cccc(N2CCN(C(=O)CCCn3c(=O)[nH]c4ccsc4c3=O)CC2C)c1 (stereo not given)
- IC50 [2]: 8.43 µM (active)
- IC50 [3]: 9.39 µM (active)

Compound: CCc1ccc(CN(C)CCc2ccccn2)cc1
- EC50 (cells): 0.035 µM (active)
- EC50 [4]: > 30 µM (not active)
- EC50 [5]: < 0.1 µM (active)

Compound: COc1ccc(S(=O)(=O)N2CCCCC2)cc1NC(=O)c1ccc([N+](=O)[O-])o1
- EC50 [4]: 11.9 µM (active)
- AC50 [1]: 9.14 µM (active)
- EC50 [5]: 4.55 µM (active)

Compound: CCn1c2ccccc2c2cc(CNCCCN3CCOCC3)ccc21
- EC50 (cells): 0.013 µM (active)
- EC50 [4]: > 60 µM (not active)
- EC50 [5]: < 0.1 µM (active)

Compound: CN(C)C(CN=C(S)Nc1ccc(F)cc1)c1cccnc1 (stereo not given)
- EC50 [6]: 0.0173 µM (active)

Compound: O=C(NC(c1ccc(Cl)cc1)c1cc(Cl)c2cccnc2c1O)c1cccnc1 (stereo not given)
- EC50 [7]: 8.56 µM (inconclusive)
- EC50 [4]: 6.88 µM (active)
- AC50 (INS1): 0.951 µM (active)
- AC50 [8]: 24.2 µM (active)
- EC50 [5]: 0.253 µM (active)
- EC50 (Streptococcus): 1.36 µM (active)
- EC50 [9]: > 112 µM (not active)
- AC50 (HEK293): 2 µM (active)
- EC50 [10]: > 112 µM (not active)
- EC50 [11]: 0.73 µM (active)
- EC50 [12]: 0.66 µM (active)

Compound: O=c1c2ccccc2[nH]c(=S)n1CCN1CCCC1
- IC50 [2]: 4.01 µM (active)
- IC50 [3]: 8.33 µM (active)

Compound: CN1CCC(CNC(=O)Nc2ccccc2)(c2ccccc2)CC1
- EC50 [6]: 1.33 µM (active)

Compound: COc1ccc2nc(N(CCN(C)C)C(=O)c3ccc4c(c3)OCCO4)sc2c1
- EC50 (cells): 0.095 µM (active)
- EC50 [4]: > 60 µM (not active)
- EC50 [5]: < 0.1 µM (active)

Compound: N#Cc1c(N)nc(SCc2ccccn2)c(C#N)c1-c1cccs1
- IC50 [2]: 0.0829 µM (active)
- IC50 [3]: 0.158 µM (active)

Compound: CCc1ccc(C(CNc2nc(C(F)(F)F)nc3ccccc23)N(C)C)cc1 (stereo not given)
- EC50 [13]: > 195 µM (not active)
- EC50 [14]: 1.06 µM (active)
- EC50 [6]: 2.99 µM (active)

Compound: CCN=C(S)N1CCC(C(O)(c2ccccc2)c2ccccc2)CC1
- EC50 [14]: 1.68 µM (active)
- EC50 [6]: 10.6 µM (active)

Compound: COC1CCC(OC2CC(C3(C)CCC4(CC(O)C(C)C(C(C)/C=C(\C)C(=O)C(C)CC(C)C(=O)O)O4)O3)OC3(OC(C4OC(O)(CO)C(C)CC4C)CC3C)C2C)OC1C (stereo not given)
- AC50 [8]: 5.72 µM (active)

Compound: COc1cccc(/N=c2\oc3ccc(OC)cc3cc2-c2nc3ccccc3[nH]2)c1
- IC50 [15]: > 67.5 µM (inactive)
- IC50 [16]: 41 µM (active)
- IC50 [17]: > 50 µM (inactive)
- IC50 [18]: 7.91 µM (active)

Compound: Cc1nccn1C[C@@H]1CCc2c(c3ccccc3n2C)C1=O [(S)-ONDANSETRON]
- IC50 [2]: 1.12 µM (active)
- IC50 [3]: 0.0214 µM (active)
- AC50 (Cytochrome P450 2D6): 10 µM (inconclusive)

— ChEMBL document CHEMBL1201862, “PubChem BioAssay data set” (2004)
